Reference: ChEMBL document CHEMBL1201862, “PubChem BioAssay data set” (2004)
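96-well plates; 48 h exposure; 5 concentrations. Endpoints by linear interpolation between flanking doses. Not reached: highest tested concentration assigned. GI50: concentration for 50% inhibition of growth.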 Calls of active or inactive are those of the source. No stated cut-off is given here; in the data, active = GI50 up to about 1.1 µM and inactive = higher.

Legend:
Assay in all cases: inhibition of tumour cell growth, NCI panel, 48 h
[1] = test system: A498
[2] = test system: ACHN
[3] = test system: CAKI-1
[4] = test system: CCRF-CEM
[5] = test system: COLO 205
[6] = test system: HOP-62
[7] = test system: HT-29
[8] = test system: IGROV-1
[9] = test system: LOX IMVI
[10] = test system: LXFL 529
[11] = test system: OVCAR-8
[12] = test system: SF-268
[13] = test system: SK-MEL-28
[14] = test system: SK-OV-3
[15] = test system: SN12C
[16] = test system: SW-620
[17] = test system: TK-10
[18] = test system: UACC-62
[19] = test system: MCF7

## C=C(C)C1CC=C(C)CC1 (stereo unspecified)
[1]
  GI50: 906 µM (inactive)
[2]
  GI50: 871 µM (inactive)
[3]
  GI50: 935 µM (inactive)
[4]
  GI50: 826 µM (inactive)
[5]
  GI50: 1010 µM (inactive)
[6]
  GI50: 883 µM (inactive)
[7]
  GI50: 923 µM (inactive)
[8]
  GI50: 993 µM (inactive)
[9]
  GI50: 897 µM (inactive)
[10]
  GI50: 855 µM (inactive)
[11]
  GI50: 1040 µM (inactive)
[12]
  GI50: 944 µM (inactive)
[13]
  GI50: 951 µM (inactive)
[14]
  GI50: 1140 µM (inactive)
[15]
  GI50: 893 µM (inactive)
[16]
  GI50: 895 µM (inactive)
[17]
  GI50: 1000 µM (inactive)
[18]
  GI50: 838 µM (inactive)

## O=C(CC(=O)c1ccccc1)C(=O)NC12CC3CC(CC(C3)C1)C2
[1]
  GI50: > 100 µM (inactive)
[2]
  GI50: > 100 µM (inactive)
[3]
  GI50: > 100 µM (inactive)
[4]
  GI50: > 49.2 µM (inactive)
[5]
  GI50: > 45 µM (inactive)
[6]
  GI50: > 100 µM (inactive)
[7]
  GI50: > 100 µM (inactive)
[8]
  GI50: > 100 µM (inactive)
[9]
  GI50: > 34.6 µM (inactive)
[10]
  GI50: > 100 µM (inactive)
[11]
  GI50: > 100 µM (inactive)
[12]
  GI50: > 91.4 µM (inactive)
[13]
  GI50: > 100 µM (inactive)
[14]
  GI50: > 100 µM (inactive)
[15]
  GI50: > 100 µM (inactive)
[16]
  GI50: > 41.6 µM (inactive)
[17]
  GI50: > 100 µM (inactive)
[18]
  GI50: > 100 µM (inactive)

## Cc1cccc(N2C(=O)C(Cl)=C(Cl)C2=O)c1
[1]
  GI50: > 100 µM (inactive)
[2]
  GI50: > 49.1 µM (inactive)
[3]
  GI50: > 42.3 µM (inactive)
[4]
  GI50: 18.5 µM (inactive)
[5]
  GI50: > 69 µM (inactive)
[6]
  GI50: > 100 µM (inactive)
[7]
  GI50: > 62.2 µM (inactive)
[8]
  GI50: > 100 µM (inactive)
[9]
  GI50: > 100 µM (inactive)
[10]
  GI50: > 41.6 µM (inactive)
[11]
  GI50: > 100 µM (inactive)
[12]
  GI50: 97.3 µM (inactive)
[13]
  GI50: > 54.5 µM (inactive)
[14]
  GI50: > 100 µM (inactive)
[15]
  GI50: > 80.5 µM (inactive)
[16]
  GI50: > 44 µM (inactive)
[17]
  GI50: > 66.8 µM (inactive)
[18]
  GI50: > 64.7 µM (inactive)

## COc1ccc2c(c1)[n+]([O-])c(-c1ccc(Cl)c(Cl)c1)c(N)[n+]2[O-]
[1]
  GI50: 47.5 µM (inactive)
[2]
  GI50: 42.6 µM (inactive)
[3]
  GI50: 37.9 µM (inactive)
[5]
  GI50: 19 µM (inactive)
[6]
  GI50: 60.8 µM (inactive)
[7]
  GI50: 37.5 µM (inactive)
[8]
  GI50: 27 µM (inactive)
[10]
  GI50: 35.6 µM (inactive)
[11]
  GI50: 34.9 µM (inactive)
[12]
  GI50: 37.1 µM (inactive)
[13]
  GI50: 27 µM (inactive)
[14]
  GI50: 55.1 µM (inactive)
[15]
  GI50: 46.1 µM (inactive)
[16]
  GI50: 38.9 µM (inactive)

## N=C(N)NS(=O)(=O)c1ccc(NC(=O)c2cccc3c(N)c4ccccc4nc23)cc1
[1]
  GI50: > 100 µM (inactive)
[2]
  GI50: > 100 µM (inactive)
[3]
  GI50: > 100 µM (inactive)
[4]
  GI50: 92.3 µM (inactive)
[5]
  GI50: > 100 µM (inactive)
[6]
  GI50: > 100 µM (inactive)
[8]
  GI50: > 100 µM (inactive)
[9]
  GI50: > 100 µM (inactive)
[10]
  GI50: 60.1 µM (inactive)
[11]
  GI50: > 100 µM (inactive)
[12]
  GI50: > 100 µM (inactive)
[13]
  GI50: > 100 µM (inactive)
[14]
  GI50: > 100 µM (inactive)
[15]
  GI50: > 100 µM (inactive)
[16]
  GI50: > 100 µM (inactive)
[17]
  GI50: > 100 µM (inactive)
[18]
  GI50: > 100 µM (inactive)

## CCCCCCCCCCCCCS(=O)(=O)NCC(N)=O
[1]
  GI50: > 100 µM (inactive)
[2]
  GI50: > 100 µM (inactive)
[4]
  GI50: > 100 µM (inactive)
[5]
  GI50: > 100 µM (inactive)
[6]
  GI50: > 100 µM (inactive)
[7]
  GI50: > 100 µM (inactive)
[8]
  GI50: > 100 µM (inactive)
[9]
  GI50: > 100 µM (inactive)
[10]
  GI50: > 100 µM (inactive)
[11]
  GI50: > 100 µM (inactive)
[12]
  GI50: > 100 µM (inactive)
[13]
  GI50: > 100 µM (inactive)
[14]
  GI50: > 100 µM (inactive)
[15]
  GI50: > 100 µM (inactive)
[16]
  GI50: > 100 µM (inactive)
[17]
  GI50: > 100 µM (inactive)
[18]
  GI50: > 100 µM (inactive)

## Cc1c(N)nc([C@H](CC(N)=O)NC[C@H](N)C(N)=O)nc1C(=O)N[C@H](C(=O)N[C@H](C)[C@@H](O)[C@H](C)C(=O)N[C@H](C(=O)NCCc1nc(-c2nc(C(=O)NCCC[S+](C)C)cs2)cs1)[C@@H](C)O)C(OC1OC(CO)C(O)C(O)C1OC1OC(CO)C(O)C(OC(N)=O)C1O)c1c[nH]cn1 (stereo partly specified)
[1]
  GI50: 3.24 µM (inactive)
[2]
  GI50: 0.00802 µM (active)
[3]
  GI50: 0.0379 µM (active)
[4]
  GI50: 6.75 µM (inactive)
[5]
  GI50: 6.05 µM (inactive)
[6]
  GI50: 0.0838 µM (active)
[7]
  GI50: 14.1 µM (inactive)
[8]
  GI50: 2.29 µM (inactive)
[9]
  GI50: 0.161 µM (active)
[10]
  GI50: 16.9 µM (inactive)
[19]
  GI50: 2.45 µM (inactive)
[11]
  GI50: 3.26 µM (inactive)
[12]
  GI50: 1.15 µM (inactive)
[13]
  GI50: 18.2 µM (inactive)
[14]
  GI50: 6.46 µM (inactive)
[15]
  GI50: 0.984 µM (active)
[16]
  GI50: 8.18 µM (inactive)
[17]
  GI50: 10.8 µM (inactive)
[18]
  GI50: 0.451 µM (active)
